Here are results for 2 substances from US20250051391A1, “PEPTIDE INHIBITORS AND METHODS FOR INHIBITING PROTEIN AGGREGATION IN NEURONS AND NEURODEGENERATIVE DISEASES” (THE GOVERNING COUNCIL OF THE UNIVERSITY OF TORONTO, priority 2021, published 2025).

Ends that are not written are not given here.

One test concerns the target T1, CHMP2B-VPS4 interaction (Homo sapiens, UniProt Q9UQN3).
T1 construct: expressed in transfected cells; host or cells: HEK293T
Description: Co-immunoprecipitation: disruption of VPS4B-CHMP2B interaction. It counts as cell-based. The following applies: Flag-VPS4B, HA-tagged CHMP proteins, GFP-tagged peptides. As for the experimental part:
HEK293T cells were co-transfected with Flag-tagged target protein, HA-tagged source protein, and GFP-tagged peptide or GFP. Cells were lysed 48 h after transfections with radioimmune precipitation assay buffer (50 mM Tris-HCl pH7.4, 1% Nonidet P-40, 150 mM NaCl, 1 mM EDTA, 10 mM Na3VO4, 10 mM sodium pyrophosphate, 25 mM NaF, 1× protease inhibitor mixture (Sigma)) for 30 min at 4° C. and coimmunoprecipitated with Flag beads (Clontech). The resulting immunocomplexes were analyzed by immunoblot using the appropriate antibodies. Protein samples were separated using 4-20% Mini-PROTEAN Tris-glycine gels (Bio-Rad) transferred to PVDF membranes and blocked in 5% milk containing PBS-Tween-20 (0.1%) for 1 h. PVDF membranes were then incubated with specified primary antibodies followed by incubation with horseradish peroxidase-conjugated secondary antibodies (Santa Cruz Biotechnology) and detected using enhanced chemiluminescence (GE Healthcare).

Test [1] has as its system a-syn oligomers in HEK293 cells. Put plainly: Oligomers screen (split YFP-a-syn protein fragment complementation, FACS). It counts as cell-based, human. From the text: To detect a-syn oligomers, a protein fragment complementation assay (PCA) of a-syn oligomerization in HEK293 cells (14) was used. In this assay, human A53T a-syn was fused to either the C- or N-terminal half of yellow fluorescent protein (YFP). No fluorescence is detectable while a-syn exists in monomers but, when a-syn oligomerizes, the two halves of YFP come in close enough proximity to form a functional, spontaneously fluorescent protein. […] By using fluorescence activated cell sorting (FACS), cells expressing Flag-tagged peptides that directly or indirectly interfered with a-syn oligomer formation were isolated and then the peptides were identified from genomic DNA (FIG. 1A). The screens yielded 10 hits (Table 1). The hit with the most reads (i.e., the most abundant) was the same peptide in all screens: IPIQLKA (SEQ ID NO: 1) (PDpep1) (Table 2). […] Lead peptide targets CHMP2B, a member of ESCRT-III
PCR primers that included the Illumina adaptor sequences were used to amplify peptide coding sequences recovered from selection and cell sorting. Results were demultiplexed, and peptide counts were tallied. After demultiplexing, only reads with an average quality Phred score of >30 were selected, and frequencies were calculated. Finally, the reads were then normalized to the total number of peptides read for that sample population, and a scalar factor was applied. In parallel, ˜25 individual colonies were Sanger sequenced to compare to the NGS data.
Lentiviruses were made in a 15 cm dish format by transfecting packaging cells (293T) with a three-plasmid system as previously described. Viral transduction of HEK293T cells, tet-off split luciferase a-syn cells, tet-off parent cells, and SH-SY5Y cells were performed with a multiplicity of infection of 0.3 (MOI=0.3). Infected cells were selected in puromycin-containing medium to eliminate uninfected cells and three aliquots of cells were collected for sampling of the initial (TO) cell population. Cells were treated with MG132 at concentrations of 0 μM, 10 μM, 25 μM or 50 μM. For the cell viability screen, surviving cells were collected and gDNA was extracted for identification of peptide inhibitors of cell toxicity. For the inhibition of a-syn aggregation screen, split YFP-a-syn constructs were transfected following stable expression of the peptides. Cells were sorted based on their GFP fluorescence intensities with a FACSVantage SE cell sorter (BD Bioscience).
Cells were harvested by trypsin treatment and centrifuged at 500×g for 5 minutes. The pellet was resuspended in ice-cold PBS and centrifuged again. The pellet was then resuspended at a concentration of 4×10^6 cells/ml in the sorting buffer, which is PBS containing 100 Kunitz Dnase l/ml, 10 μg/ml propidium iodide (Sigma) and 2% FBS. The sorting solution was also supplemented with either 10 μM forskolin, 100 μM 5,6-Dichlorobenzimidazole riboside (DRB, Sigma), 10 μM forskolin (Sigma) and 100 μM DRB or DMSO, as a control. The cells were then sent through a 40 μm filter to remove large clumps and loaded into either a FACScan Flow Cytometer (BD Bioscience) for cell analysis or a FACSVantage SE cell sorter (BD Bioscience) for cell sorting. The cells with positive propidium iodide staining (i.e., dead cells) were first eliminated from the analysis or sorting pool. For cell sorting, the desired population, either the most or least bright EGFP-positive cells, according to the purpose of the experiments (see Results), was sorted into either 15 ml conical tubes or 96-well plates, which both contained complete DMEM culture media.
Genomic DNA (gDNA) from peptide expressing cells at different time-points was extracted using QIAamp DNA Blood Mini Kit. PCR amplifications of peptides from gDNA in parallel with the lentiviral plasmid library (naïve library) were performed using indexed Illumina PCR primers to incorporate both the Illumina adapter sequences and indexing sequences. […]

T1 sequence (Q9UQN3 whole entry): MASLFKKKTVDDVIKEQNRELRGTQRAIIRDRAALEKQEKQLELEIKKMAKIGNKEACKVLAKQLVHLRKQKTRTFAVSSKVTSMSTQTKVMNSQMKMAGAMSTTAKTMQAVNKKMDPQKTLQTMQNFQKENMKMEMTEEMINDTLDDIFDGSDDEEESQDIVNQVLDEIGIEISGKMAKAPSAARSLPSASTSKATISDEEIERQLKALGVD

For DEEIERQLKALG [PDpep1.3], the “effect on CHMP2B-VPS4 interaction (co-immunoprecipitation)” value is “disrupted the interaction between VPS4B and CHMP2B” at CHMP2B-VPS4 interaction; “inhibits the CHMP2B-VPS4 interaction” at CHMP2B-VPS4 interaction (listed as Pdpep1.3).
As to “IPIQLKA [PDpep1, top hit of all screens; maps to CHMP2B residues 203-209]”, the “Reads Ratio” value in test [1] is given as 1,218.98. Also, the “Reads GFP High” value in test [1] (FACS fraction GFP High) was 12. Further, in test [1] (FACS fraction GFP Inter), the “Reads GFP Inter” value is listed as 2853. Further, in test [1] (FACS fraction GFP Neg), the “Reads GFP Neg” value is on record as 15556.
